Experimental data from patent US12398107B2, “Fungicidal nitroanilino substituted pyrazoles” (FMC Corporation, priority 2018, dated 2025).

Tests used:
Format in all cases: in vivo
[1] = test system: Puccinia recondita f. sp. tritici; test: Test B: wheat leaf rust, preventive spray on wheat seedlings; conditions: 100 = 100% disease control, 0 = no control relative to controls; for pest or weed control at 50 ppm / Test B disease control rating (wheat leaf rust): 50 ppm
Summary of the method: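 Compounds in acetone/water (50/50) with 250 ppm PEG400, sprayed to run-off on wheat seedlings at stated ppm; inoculated next day with P. recondita spores. Held 24 h saturated at 20° C., then 7 days in growth chamber at 20° C.; rating 0–100 = % disease control vs controls.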

[2] = test system: Septoria tritici; test: Test A: wheat leaf blotch, preventive spray on wheat seedlings; conditions: 100 = 100% disease control, 0 = no control relative to controls; for pest or weed control at 50 ppm / Test A disease control rating (wheat leaf blotch): 50 ppm
Summary of the method: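 Compounds were suspended in acetone/water (50/50) with 250 ppm PEG400 and sprayed to run-off on wheat seedlings. The next day the seedlings were inoculated with Septoria tritici spores, held 48 h at 24 °C in saturated humidity, then 17 days at 20 °C. Disease control was rated 0–100 relative to controls.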

[3] = test system: Blumeria graminis f. sp. tritici; test: Test C: wheat powdery mildew, preventive spray on wheat seedlings; conditions: rated after 8 days, 100 = 100% disease control, 0 = no control; for pest or weed control at 50 ppm / Test C disease control rating (wheat powdery mildew): 50 ppm
Summary of the method: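 Compound dissolved in acetone (3% of final volume), then suspended in 50/50 acetone/water with 250 ppm PEG400 and sprayed to run-off on wheat seedlings. Inoculated next day with B. graminis f. sp. tritici spore dust, kept 8 days at 20° C; visual rating, 100 = full control, 0 = none, relative to controls.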

[4] = test system: Botrytis cinerea; test: Test E: tomato Botrytis, preventive spray on tomato seedlings; conditions: 100 = 100% disease control, 0 = no control; for pest or weed control at 50 ppm / Test E disease control rating (tomato Botrytis): 50 ppm
Summary of the method: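 Tomato seedlings sprayed to run-off with compound (ppm) in acetone/water with 250 ppm PEG400, then inoculated next day with B. cinerea spores. Held 48 h at 20 °C in saturated atmosphere, then 3 days at 24 °C. Visual rating 0–100% disease control relative to untreated controls.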

[5] = test system: Phakopsora pachyrhizi; test: Test D: Asian soybean rust, preventive spray on soybean seedlings; conditions: 100 = 100% disease control, 0 = no control; for pest or weed control at 50 ppm / Test D disease control rating (Asian soybean rust): 50 ppm
Summary of the method: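 Soybean seedlings sprayed to run-off with compound suspension (ppm, in 50/50 acetone/water with 250 ppm PEG400), inoculated next day with P. pachyrhizi spores, held 24 h saturated at 22°C then 8 days at 22°C. Visual rating 0-100% disease control relative to controls.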

[6] = test system: Alternaria solani; test: Test F: tomato early blight, preventive spray on tomato seedlings; conditions: 100 = 100% disease control, 0 = no control; for pest or weed control at 50 ppm / Test F disease control rating (tomato early blight): 50 ppm
Summary of the method: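 Compounds in acetone/water (50/50) with 250 ppm PEG400, dosed in ppm, sprayed to run-off on tomato seedlings; next day inoculated with A. solani spores. Held 48 h saturated at 27° C, then 3 days at 20° C; visual rating 0–100% disease control relative to controls.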

[7] = read-out: Test B disease control rating (wheat leaf rust)
[8] = Zymoseptoria tritici, read-out: Test A disease control rating (wheat leaf blotch)
[9] = Blumeria graminis, 192 h, read-out: Test C disease control rating (wheat powdery mildew)
[10] = Botrytis cinerea, read-out: Test E disease control rating (tomato Botrytis)
[11] = Phakopsora pachyrhizi, read-out: Test D disease control rating (Asian soybean rust)
[12] = Alternaria solani, read-out: Test F disease control rating (tomato early blight)

Row | SMILES | pest or weed control at 10 ppm ([1]; 10 ppm, read-out: Test B disease control rating (wheat leaf rust)) [%] | pest or weed control at 50 ppm [1, 7] [%] | pest or weed control at 10 ppm ([2]; Zymoseptoria tritici, 10 ppm, read-out: Test A disease control rating (wheat leaf blotch)) [%] | pest or weed control at 50 ppm [2, 8] [%] | pest or weed control at 10 ppm ([3]; Blumeria graminis, 192 h, 10 ppm, read-out: Test C disease control rating (wheat powdery mildew)) [%] | pest or weed control at 50 ppm [3, 9] [%] | pest or weed control at 10 ppm ([4]; Botrytis cinerea, 10 ppm, read-out: Test E disease control rating (tomato Botrytis)) [%] | pest or weed control at 50 ppm [4, 10] [%] | pest or weed control at 10 ppm ([5]; Phakopsora pachyrhizi, 10 ppm, read-out: Test D disease control rating (Asian soybean rust)) [%] | pest or weed control at 50 ppm [5, 11] [%] | pest or weed control at 10 ppm ([6]; Alternaria solani, 10 ppm, read-out: Test F disease control rating (tomato early blight)) [%] | pest or weed control at 50 ppm [6, 12] [%] | Test B disease control rating (wheat leaf rust) [1] [%] | Test A disease control rating (wheat leaf blotch) [2] [%] | Test C disease control rating (wheat powdery mildew) [3] [%] | Test E disease control rating (tomato Botrytis) [4] [%] | Test D disease control rating (Asian soybean rust) [5] [%] | Test F disease control rating (tomato early blight) [6] [%]
1 | CCc1nn(C)c(Nc2c(F)cccc2[N+](=O)[O-])c1-c1ccc(F)cc1Cl [Compound 72, 4-(2-chloro-4-fluorophenyl)-N-(2-fluoro-6-nitrophenyl)-3-ethyl-1-methyl-1H-pyrazol-5-amine] | 85 | 100 | 100 | 100 | 81 | 99 | 98 | 98 | 12 | 31 | 63 | 99 | – | – | – | – | – | –
2 | COc1ccc(-c2c(C)nn(C)c2Nc2c(Cl)cc(F)cc2[N+](=O)[O-])c(Cl)c1 [Compound 73, N-(2-chloro-4-fluoro-6-nitrophenyl)-4-(2-chloro-4-methoxyphenyl)-1,3-dimethyl-1H-pyrazol-5-amine] | – | 100 | – | 100 | – | 96 | – | 99 | – | 98 | – | 97 | – | – | – | – | – | –
3 | COc1ccc(-c2c(C)nn(C)c2Nc2ccc(Cl)cc2[N+](=O)[O-])c(Cl)c1 [Compound 74] | – | – | – | – | – | – | – | – | – | – | – | – | 86 | 99 | 81 | 99 | 74 | 85
4 | Cc1nn(C)c(Nc2c(F)cc(F)cc2[N+](=O)[O-])c1-c1c(F)cccc1F [Compound 75] | – | – | – | – | – | – | – | – | – | – | – | – | 99 | 100 | 90 | 57 | 0 | 98
5 | Cc1nn(C)c(Nc2c(Cl)cc(F)cc2[N+](=O)[O-])c1-c1c(F)cccc1F [Compound 76] | – | – | – | – | – | – | – | – | – | – | – | – | 99 | 100 | 95 | 87 | 25 | 0
6 | Cc1nn(C)c(Nc2c(Cl)cccc2[N+](=O)[O-])c1-c1c(F)cccc1F [Compound 77] | – | – | – | – | – | – | – | – | – | – | – | – | 100 | 100 | 95 | 72 | 73 | 9
7 | Cc1nn(C)c(Nc2ccc(Cl)cc2[N+](=O)[O-])c1-c1ccc(F)cc1F [Compound 78] | – | – | – | – | – | – | – | – | – | – | – | – | 89 | 100 | 95 | 68 | 0 | 0
8 | Cc1nn(C)c(Nc2c(Cl)cccc2[N+](=O)[O-])c1-c1ccc(F)cc1F [Compound 79] | – | – | – | – | – | – | – | – | – | – | – | – | 100 | 100 | 91 | 98 | 44 | 0
9 | COc1cc(Cl)c(Nc2c(-c3ccc(F)cc3Cl)c(C)nn2C)c([N+](=O)[O-])c1 [Compound 80] | – | – | – | – | – | – | – | – | – | – | – | – | 100 | 100 | 97 | 95 | 50 | 98
10 | COc1ccc(-c2c(C)nn(C)c2Nc2c(F)cc(Cl)cc2[N+](=O)[O-])c(Cl)c1 [Compound 81] | – | – | – | – | – | – | – | – | – | – | – | – | 99 | 100 | 89 | 95 | 0 | 99
11 | COc1cc(F)c(-c2c(C)nn(C)c2Nc2c(Cl)cc(Cl)cc2[N+](=O)[O-])c(F)c1 [Compound 82] | – | – | – | – | – | – | – | – | – | – | – | – | 100 | 100 | 58 | 96 | 59 | 97
12 | COc1cc(F)c(-c2c(C)nn(C)c2Nc2ccc(F)cc2[N+](=O)[O-])c(F)c1 [Compound 83] | – | – | – | – | – | – | – | – | – | – | – | – | 91 | 99 | 99 | 98 | 0 | 99
13 | COc1cc(F)c(-c2c(C)nn(C)c2Nc2c(F)cc(F)cc2[N+](=O)[O-])c(F)c1 [Compound 84] | – | – | – | – | – | – | – | – | – | – | – | – | 100 | 100 | 99 | 90 | 48 | 99
14 | COc1cc(F)c(Nc2c(-c3ccc(F)cc3Cl)c(C)nn2C)c([N+](=O)[O-])c1 [Compound 85] | – | – | – | – | – | – | – | – | – | – | – | – | 100 | 100 | 97 | 94 | 96 | 98
15 | COc1cc(F)c(-c2c(C)nn(C)c2Nc2c(F)cc(Cl)cc2[N+](=O)[O-])c(F)c1 [Compound 86] | – | – | – | – | – | – | – | – | – | – | – | – | 100 | 100 | 98 | 96 | 77 | 99
16 | Cc1ccc(Nc2c(-c3ccc(F)cc3Br)c(C)nn2C)c([N+](=O)[O-])c1 [Compound 90] | – | – | – | – | – | – | – | – | – | – | – | – | 95 | 100 | 87 | 99 | 0 | 9
17 | Cc1nn(C)c(Nc2ccc(Br)cc2[N+](=O)[O-])c1-c1ccc(F)cc1Cl [Compound 91] | – | – | – | – | – | – | – | – | – | – | – | – | 88 | 99 | 84 | 99 | 0 | 26
18 | Cc1nn(C)c(Nc2ccc(Cl)cc2[N+](=O)[O-])c1-c1ccc(F)cc1Cl [Compound 92] | – | – | – | – | – | – | – | – | – | – | – | – | 96 | 100 | 89 | 100 | 0 | 79
